Active and inactive are the calls of the source. No cut-off for these calls is given here.
Experiments:
[1] = test system: Peritoneal macrophage cell; assay: Antiinflammatory activity in C57bl/6 mouse peritoneal macrophages assessed as reduction in LPS-induced IL-6 production at >=10 nM treated for 30 mins prior to LPS challenge measured after 24 hrs by ELISA; assay type: functional, cell-based
[2] = test system: RAW264.7; assay: Cytotoxicity against mouse RAW264.7 cells assessed as cell viability at 10 pM to 10 uM by MTT assay; assay type: cell-based
[3] = test system: Peritoneal macrophage cell; assay: Antiinflammatory activity in C57bl/6 mouse peritoneal macrophages assessed as reduction in LPS-induced TNF-alpha production at >=1 uM treated for 30 mins prior to LPS challenge measured after 6 hrs by ELISA; assay type: functional, cell-based
[4] = Cytotoxicity against C57bl/6 mouse peritoneal macrophages assessed as cell viability at 10 pM to 10 uM by MTT assay; assay type: cell-based; details: peritoneal macrophage cell
[5] = target: Cholinesterase (Equus caballus, UniProt P81908); assay: Inhibition of BuChE in equine serum using butylthiocholine iodide as substrate by Ellman's method
[6] = target: T1, Acetylcholinesterase (Bos taurus, UniProt P23795); assay: Inhibition of AChE in bovine erythrocytes using acetylthiocholine iodide as substrate by Ellman's method
T1 sequence (P23795 whole entry): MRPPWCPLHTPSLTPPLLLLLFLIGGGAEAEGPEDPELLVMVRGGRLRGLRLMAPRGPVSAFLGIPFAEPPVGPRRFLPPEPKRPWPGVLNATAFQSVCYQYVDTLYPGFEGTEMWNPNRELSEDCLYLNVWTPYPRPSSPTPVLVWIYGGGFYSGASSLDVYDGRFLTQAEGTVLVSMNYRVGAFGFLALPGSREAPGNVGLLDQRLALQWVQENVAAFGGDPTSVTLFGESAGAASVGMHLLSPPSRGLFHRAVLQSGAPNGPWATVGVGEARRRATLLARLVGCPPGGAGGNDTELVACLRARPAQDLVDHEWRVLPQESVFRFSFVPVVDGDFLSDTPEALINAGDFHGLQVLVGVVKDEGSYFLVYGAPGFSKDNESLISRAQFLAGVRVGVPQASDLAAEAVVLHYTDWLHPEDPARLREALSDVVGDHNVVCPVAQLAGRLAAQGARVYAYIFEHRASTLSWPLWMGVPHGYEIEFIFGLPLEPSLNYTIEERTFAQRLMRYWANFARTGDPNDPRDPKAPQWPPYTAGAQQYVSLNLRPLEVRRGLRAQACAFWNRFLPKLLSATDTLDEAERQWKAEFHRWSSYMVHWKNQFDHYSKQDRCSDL

[7] = test system: RAW264.7; assay: Antiinflammatory activity in mouse RAW264.7 cells assessed as reduction in LPS-induced NaNO2 release at 10 pM treated for 30 mins prior to LPS challenge measured after 24 hrs by griess reaction assay relative to budesonide; assay type: functional
[8] = test system: RAW264.7; assay: Antiinflammatory activity in mouse RAW264.7 cells assessed as reduction in LPS-induced NaNO2 release at >=10 pM treated for 30 mins prior to LPS challenge measured after 24 hrs by griess reaction assay; assay type: functional, cell-based
[9] = test system: RAW264.7; assay: Antiinflammatory activity in mouse RAW264.7 cells assessed as reduction in LPS-induced NaNO2 release at 10 pM treated for 30 mins prior to LPS challenge measured after 24 hrs by griess reaction assay relative to melatonin; assay type: functional
[10] = test system: Peritoneal macrophage cell; assay: Antiinflammatory activity in C57bl/6 mouse peritoneal macrophages assessed as reduction in LPS-induced TNF-alpha production at >=10 pM treated for 30 mins prior to LPS challenge measured after 6 hrs by ELISA; assay type: functional, cell-based
[11] = test system: Peritoneal macrophage cell; assay: Antiinflammatory activity in C57bl/6 mouse peritoneal macrophages assessed as reduction in LPS-induced TNF-alpha production at >=10 nM treated for 30 mins prior to LPS challenge measured after 6 hrs by ELISA; assay type: functional, cell-based
[12] = test system: Peritoneal macrophage cell; assay: Antiinflammatory activity in C57bl/6 mouse peritoneal macrophages assessed as reduction in LPS-induced TNF-alpha production at >=1 pM treated for 30 mins prior to LPS challenge measured after 6 hrs by ELISA; assay type: functional, cell-based
[13] = test system: Peritoneal macrophage cell; assay: Antiinflammatory activity in C57bl/6 mouse peritoneal macrophages assessed as reduction in LPS-induced IL-6 production at >=1 nM treated for 30 mins prior to LPS challenge measured after 24 hrs by ELISA; assay type: functional, cell-based
[14] = test system: RAW264.7; assay: Antiinflammatory activity in mouse RAW264.7 cells assessed as reduction in LPS-induced NaNO2 release at 1 nM treated for 30 mins prior to LPS challenge measured after 24 hrs by griess reaction assay relative to melatonin; assay type: functional
[15] = test system: Peritoneal macrophage cell; assay: Antiinflammatory activity in C57bl/6 mouse peritoneal macrophages assessed as reduction in LPS-induced IL-6 production at >=10 pM treated for 30 mins prior to LPS challenge measured after 24 hrs by ELISA; assay type: functional, cell-based
[16] = test system: RAW264.7; assay: Antiinflammatory activity in mouse RAW264.7 cells assessed as reduction in LPS-induced NaNO2 release at 1 nM treated for 30 mins prior to LPS challenge measured after 24 hrs by griess reaction assay relative to budesonide; assay type: functional
[17] = test system: RAW264.7; assay: Antiinflammatory activity in mouse RAW264.7 cells assessed as reduction in LPS-induced NaNO2 release at >=1 nM treated for 30 mins prior to LPS challenge measured after 24 hrs by griess reaction assay; assay type: functional, cell-based
[18] = target: MAP kinase p38 (Mus musculus) (UniProt P47811+O08911+Q9WUI1+Q9Z1B7); assay: Inhibition of p38 phosphorylation in LPS-activated C57bl/6 mouse peritoneal macrophages at 0.1 nM treated for 30 mins prior to LPS challenge by immunoblot analysis
[19] = target: T2, Inhibitor of nuclear factor kappa-B kinase subunit alpha (Mus musculus) (UniProt Q60680); assay: Inhibition of IkappaB alpha degradation in LPS-activated C57bl/6 mouse peritoneal macrophages at 0.1 nM treated for 30 mins prior to LPS challenge by immunoblot analysis
T2 sequence (whole entry): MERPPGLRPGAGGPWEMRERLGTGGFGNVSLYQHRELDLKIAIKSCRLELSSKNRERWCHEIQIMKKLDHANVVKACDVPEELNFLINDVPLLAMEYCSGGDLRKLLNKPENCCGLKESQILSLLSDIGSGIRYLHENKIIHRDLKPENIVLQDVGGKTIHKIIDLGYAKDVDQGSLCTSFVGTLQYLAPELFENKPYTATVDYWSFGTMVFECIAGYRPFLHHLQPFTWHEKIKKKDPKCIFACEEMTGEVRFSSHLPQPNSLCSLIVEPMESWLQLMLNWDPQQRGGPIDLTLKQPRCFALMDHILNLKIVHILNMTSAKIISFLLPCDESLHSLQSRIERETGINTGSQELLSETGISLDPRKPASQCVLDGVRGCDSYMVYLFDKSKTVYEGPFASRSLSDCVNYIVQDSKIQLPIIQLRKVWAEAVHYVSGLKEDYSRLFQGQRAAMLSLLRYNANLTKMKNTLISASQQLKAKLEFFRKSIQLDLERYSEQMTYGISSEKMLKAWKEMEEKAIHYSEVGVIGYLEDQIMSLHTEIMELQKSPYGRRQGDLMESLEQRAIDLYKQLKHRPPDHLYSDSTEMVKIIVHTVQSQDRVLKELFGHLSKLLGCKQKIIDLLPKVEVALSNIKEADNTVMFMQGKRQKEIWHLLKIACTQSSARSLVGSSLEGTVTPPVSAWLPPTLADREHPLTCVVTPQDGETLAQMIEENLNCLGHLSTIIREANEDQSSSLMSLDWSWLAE

[20] = organism: Mus musculus; assay: Inhibition of JNK phosphorylation in LPS-activated C57bl/6 mouse peritoneal macrophages at 0.1 nM treated for 30 mins prior to LPS challenge by immunoblot analysis
[21] = organism: Mus musculus; assay: Inhibition of ERK phosphorylation in LPS-activated C57bl/6 mouse peritoneal macrophages at 0.1 nM treated for 30 mins prior to LPS challenge by immunoblot analysis

Sequence of Cholinesterase (P81908 whole entry): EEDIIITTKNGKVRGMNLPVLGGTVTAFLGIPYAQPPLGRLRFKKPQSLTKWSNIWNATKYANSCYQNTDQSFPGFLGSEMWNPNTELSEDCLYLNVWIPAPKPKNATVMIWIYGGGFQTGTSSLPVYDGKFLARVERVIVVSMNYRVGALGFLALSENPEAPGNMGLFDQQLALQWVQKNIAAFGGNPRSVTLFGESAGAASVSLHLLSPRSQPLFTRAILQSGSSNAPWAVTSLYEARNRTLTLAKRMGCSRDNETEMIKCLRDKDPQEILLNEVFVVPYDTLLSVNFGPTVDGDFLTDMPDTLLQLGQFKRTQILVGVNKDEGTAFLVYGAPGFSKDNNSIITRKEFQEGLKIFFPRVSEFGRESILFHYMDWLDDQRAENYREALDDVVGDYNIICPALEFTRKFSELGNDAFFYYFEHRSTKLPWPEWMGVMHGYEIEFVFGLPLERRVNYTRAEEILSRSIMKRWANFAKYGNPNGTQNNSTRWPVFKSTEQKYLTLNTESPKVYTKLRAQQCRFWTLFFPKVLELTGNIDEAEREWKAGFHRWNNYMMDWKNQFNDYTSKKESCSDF

| Structure (SMILES) | inhibition [1] | Activity [2] | Activity [4] | IC50 [5] [nM] | IC50 [6] [nM] | fold change (FC) [7] | inhibition [8] | fold change (FC) [9] | inhibition [10] | inhibition [12] | fold change (FC) [14] | inhibition [15] | fold change (FC) [16] | inhibition [17] | other results |
| --- | --- | --- | --- | --- | --- | --- | --- | --- | --- | --- | --- | --- | --- | --- | --- |
| CCN(C)C(=O)Oc1ccc2c(c1)N(CCC(=O)OC)CC2.Cl | Active | Non-toxic | Non-toxic | 6780 | – | – | – | – | – | – | – | – | – | – | inhibition [3]: Active |
| CCN(C)C(=O)Oc1cccc2c1C(CCN(C)C)CN2.Cl (stereo not given) | Active | Non-toxic | Non-toxic | 310 | 1300 | 10 | Active | 100 | Active | – | – | – | – | – | – |
| CCN(C)C(=O)Oc1cccc2c1CCN2CCC(=O)OC.Cl | Active | Non-toxic | Non-toxic | 700 | – | 10 | Active | 100 | – | – | – | – | – | – | inhibition [11]: Active |
| CCN(C)C(=O)Oc1ccc2c(c1)NCC2CCC(=O)OC.Cl (stereo not given) | – | Non-toxic | Non-toxic | 3900 | – | 10 | Active | 100 | – | Active | – | – | – | – | inhibition [13]: Active |
| CCN(C)C(=O)Oc1ccc2c(c1)NCC2CCCN.Cl (stereo not given) | – | Non-toxic | Non-toxic | 4700 | 36000 | – | – | – | – | Active | 100 | Active | 10 | Active | – |
| CCN(C)C(=O)Oc1cccc2c1CCN2CCCN(C)C.Cl | Active | Non-toxic | Non-toxic | 900 | 3700 | – | – | – | Active | – | 100 | – | 10 | Active | – |
| CCN(C)C(=O)Oc1cccc2c1C(CCN)CN2.Cl.Cl (stereo not given) | – | Non-toxic | Non-toxic | 200 | – | 10 | Active | 100 | – | Active | – | Active | – | – | – |
| CCN(C)C(=O)Oc1ccc2c(c1)NCC2CCN(C)C.Cl (stereo not given) | Active | Non-toxic | Non-toxic | 2200 | 21300 | – | – | – | Active | – | 100 | – | 10 | Active | – |
| CCN(C)C(=O)Oc1cccc2c1C(CCCN)CN2.Cl (stereo not given) | – | Non-toxic | Non-toxic | 1200 | 1800 | – | – | – | – | Active | 100 | Active | 10 | Active | – |
| CCN(C)C(=O)Oc1ccc2c(c1)N(CCCN(C)C)CC2.Cl | Active | Non-toxic | Non-toxic | 4270 | 48000 | – | – | – | Active | – | 100 | – | 10 | Active | – |
| CCN(C)C(=O)Oc1cccc2c1C(CCC(=O)OC)CN2.Cl (stereo not given) | – | Non-toxic | Non-toxic | 300 | – | 10 | Active | 100 | – | Active | – | Active | – | – | inhibition [18]: Active; inhibition [19]: Active; inhibition [20]: inactive; inhibition [21]: inactive |
